Data published in patent publication US20130065962A1, “Compounds For Use In The Treatment Of Diseases” (INOXIA LIFESCIENCES GMBH, priority 2010, published 2013).
Read-outs that look alike come from different tables or passages of the source.

How the values were obtained:
Assay type in all cases: biochemical
[1] = target: lactoperoxidase (LPO) (UniProt P80025); experiment: LPO + Br halogenation inhibition (MCD assay); settings: bromide as substrate
[2] = target: T1, myeloperoxidase (MPO) (Homo sapiens, UniProt P05164); experiment: MPO + Cl halogenation inhibition (MCD assay); settings: chloride as substrate
T1 sequence (P05164 49-745): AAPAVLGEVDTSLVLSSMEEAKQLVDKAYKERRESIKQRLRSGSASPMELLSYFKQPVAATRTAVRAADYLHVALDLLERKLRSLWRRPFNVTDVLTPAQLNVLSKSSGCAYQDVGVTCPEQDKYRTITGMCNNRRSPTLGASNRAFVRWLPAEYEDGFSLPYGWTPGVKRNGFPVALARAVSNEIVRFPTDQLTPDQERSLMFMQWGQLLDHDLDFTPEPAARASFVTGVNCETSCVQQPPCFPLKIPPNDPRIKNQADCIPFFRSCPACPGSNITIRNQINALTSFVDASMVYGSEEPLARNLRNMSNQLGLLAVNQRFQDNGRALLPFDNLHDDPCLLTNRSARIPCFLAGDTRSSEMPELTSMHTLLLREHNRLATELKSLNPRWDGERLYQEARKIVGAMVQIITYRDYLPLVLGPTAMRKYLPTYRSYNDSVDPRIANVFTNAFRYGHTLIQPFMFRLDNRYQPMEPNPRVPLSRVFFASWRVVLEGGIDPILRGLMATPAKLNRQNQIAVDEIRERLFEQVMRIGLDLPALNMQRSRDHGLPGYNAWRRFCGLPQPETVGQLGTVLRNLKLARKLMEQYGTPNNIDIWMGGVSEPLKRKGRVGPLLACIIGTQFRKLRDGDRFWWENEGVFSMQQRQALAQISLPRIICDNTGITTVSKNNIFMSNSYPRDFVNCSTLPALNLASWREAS

[3] = target: T1, myeloperoxidase (MPO); experiment: MPO + Br halogenation inhibition (MCD assay); settings: bromide as substrate
[4] = target: T2, eosinophil peroxidase (EPO) (Homo sapiens, UniProt P11678); experiment: EPO bromination activity, monochlorodimedon (MCD) assay
T2 construct: 20 nM of EPO
T2 sequence (P11678 140-715): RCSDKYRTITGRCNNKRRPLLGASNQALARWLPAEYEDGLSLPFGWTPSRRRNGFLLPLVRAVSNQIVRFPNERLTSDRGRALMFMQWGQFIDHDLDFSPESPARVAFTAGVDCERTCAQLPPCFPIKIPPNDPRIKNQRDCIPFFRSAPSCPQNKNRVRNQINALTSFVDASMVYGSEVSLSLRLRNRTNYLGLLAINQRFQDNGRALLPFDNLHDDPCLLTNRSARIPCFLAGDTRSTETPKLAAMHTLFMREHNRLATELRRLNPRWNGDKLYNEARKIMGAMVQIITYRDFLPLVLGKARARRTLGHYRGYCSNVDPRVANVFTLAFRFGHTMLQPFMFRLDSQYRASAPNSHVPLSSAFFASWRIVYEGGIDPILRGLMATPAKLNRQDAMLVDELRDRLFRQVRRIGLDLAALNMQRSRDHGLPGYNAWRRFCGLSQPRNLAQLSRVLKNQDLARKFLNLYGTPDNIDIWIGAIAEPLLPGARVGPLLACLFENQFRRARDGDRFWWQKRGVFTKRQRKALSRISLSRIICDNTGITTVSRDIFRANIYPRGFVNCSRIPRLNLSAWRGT
Description: In order to test to what extent the substances according to the invention are able to inhibit EPO, the substances were tested for their inhibitory potential. […] In that, IC50 is that inhibitor concentration, which is required to inhibit an enzyme, here EPO, by 50%. This concentration is determined UV/Vis spectrophotometrically at 290 nm in the steady-state with a monochlorodimedon (MCD) assay.
Eosinophil peroxidase forms a multiplicity of different enzyme intermediates and is able to catalyze a high number of redox reactions. The physiological role of EPO is the oxidation of bromide or thiocyanate, respectively, to hypobromous acid or hypothiocyanate, respectively (also called halogenation cycle). And it is exactly this reaction that has to be inhibited. In the presence of phenolic substances, however, the enzyme can also undergo the so-called peroxidase cycle.
In order to determine the properties of the substances according to the invention to be inhibited, a method was used, in which the bromination activity is examined.
The extent of inhibition of the physiological bromide oxidation was photometrically determined using monochlorodimedon. The halogenation rate (initial inclination of the curve at 290 nm) with inhibitor was related to a blind value (without inhibitor), and therefrom the inactivation rate (in %) was determined. This was entered into a diagram (y-axis) opposite the inhibitor concentration (x-axis), and from the hyperbolic fit of the curve, the IC50 value for each inhibitor was determined.
100 mM of phosphate buffer, pH 7.0
100 μM of monochlorodimedon

[5] = bromide oxidation, MCD assay at 290 nm, 100 mM bromide, 20 nM EPO, pH 7.0, read-out: IC50 EPO + Br
[6] = Example 3, same protocol as Example 1, read-out: IC50 EPO/Br
[7] = Example 2, tests performed as in Example 1, read-out: IC50 value (EPO)

`NNC(=O)CNc1ccc(F)cc1` [(1), 4-fluoro-phenylaminoethane-hydrazide] was tested, and the IC50 [1] was 540 nM, the IC50 [2] was 5.43 µM and the IC50 [3] was 4120 nM. It also gave an IC50 [4, 5] of 240 nM.

Work on `NNC(=O)CNc1ccc(Cl)cc1` [(2), 4-chloro-phenylaminoethane-hydrazide] yielded an IC50 [1] of 30 nM, an IC50 [2] of 1.97 µM and an IC50 [3] of 1200 nM. It also gave an IC50 [4, 5] of 24 nM.

`NNC(=O)CNc1ccccc1F` [(3), 2-fluoro-phenylaminoethane-hydrazide] gave an IC50 [1] of 100 nM, an IC50 [2] of 8.8 µM and an IC50 [3] of 1900 nM. For the same compound, the IC50 [4, 5] was 9 nM and the “fold potential relative to compound (6) (EPO IC50)” value ([4]; compound (3) compared with non-halogenated compound (6)) was over 200 fold.

`NNC(=O)CNc1ccc(F)c(Cl)c1` [(4), 4-fluoro-3-chloro-phenylaminoethane-hydrazide] showed an IC50 [1] of 140 nM, an IC50 [2] of 2.4 µM and an IC50 [3] of 547 nM. For the same compound, the IC50 [4, 5] was 19 nM.

In the case of `NNC(=O)CNc1cccc(Br)c1` [(5), 3-bromo-phenylaminoethane-hydrazide], the IC50 [1] is reported as 40 nM, the IC50 [2] is reported as 3.7 µM and the IC50 [3] is reported as 1600 nM. It also gave an IC50 [4, 5] of 17 nM.

Compound `NNC(=O)CNc1ccc(F)cc1F` [(7), 2,4-di-fluoro-phenylaminoethane-hydrazide] has an IC50 [1] of 322 nM, an IC50 [2] of 6.55 µM and an IC50 [3] of 2040 nM. The IC50 [4, 5] was 34 nM.

Compound `Cc1ccc(NCC(=O)NN)cc1` [(8), 4-methyl-phenylaminoethane-hydrazide] has an IC50 [1] of 2770 nM, an IC50 [2] of 32.2 µM and an IC50 [3] of 29400 nM. The IC50 [4, 5] was 2270 nM.

In the case of `NNC(=O)CNc1ccccc1` [Compound (6), phenylaminoethane-hydrazide], the IC50 [1] is reported as 4970 nM, the IC50 [2] is reported as 46 µM and the IC50 [3] is reported as 84600 nM. The IC50 [4, 5] was 2290 nM.

In the case of `O=C(O)CNc1ccccc1F` [PD01, N-(2-fluorophenyl)glycin], the IC50 [4, 6] is reported as 1000 nM.

For `O=C(O)CNc1ccc(Cl)cc1` [PD02, 2-[(4-chlorophenyl)amino]acetic acid], the IC50 [4, 6] was 200 nM.

`NNC(=O)CSc1ccc(Cl)cc1` [PD06, 2-[(4-chlorophenyl)sulfanyl]acetohydrazide] gave an IC50 [4, 6] of 1200 nM.

`NNC(=O)COc1ccc(F)cc1` [PD09, 2-(4-fluorophenoxy)acetohydrazide] was tested, and the IC50 [4, 6] was 2700 nM.

`NNC(=O)COc1ccccc1Br` [PD17, 2-(2-bromophenoxy)acetohydrazide] was tested, and the IC50 [4, 6] was 3900 nM.

`NNC(=O)CCc1ccccc1O` [PD20, 3-(2-hydroxyphenyl)propanohydrazide] showed an IC50 [4, 6] of 3100 nM.

`CC(C)NNC(=O)c1ccncc1` [iproniazide, N′-isopropylisonicotinohydrazide, reference compound] showed an IC50 [4, 7] of over 500000 nM.

With `NNC(=O)c1ccncc1` [isoniazide, pyridine-4-carbohydrazide, reference compound] the IC50 [4, 7] was 6040 nM.
